Test results reported in patent US11254686B1 (Corvus Pharmaceuticals, Inc., priority 2017, dated 2022).

Assays:
adenosine A2B receptor = adenosine A2B receptor (Homo sapiens (Human), UniProt P29275); test: Adenosine receptor activity assay (Table 1), A2B activity; assay type: biochemical; conditions: for Ratio: A2A activity to A2B activity (A2A/A2B); for IC50: read-out: Ave A2B cAMP IC50
adenosine A2A receptor = adenosine A2A receptor (Homo sapiens (Human), UniProt P29274); test: Adenosine receptor activity assay (Table 1), A2A activity; assay type: biochemical; conditions: read-out: Ave A2A cAMP IC50
Sequence of adenosine A2A receptor (P29274 whole entry): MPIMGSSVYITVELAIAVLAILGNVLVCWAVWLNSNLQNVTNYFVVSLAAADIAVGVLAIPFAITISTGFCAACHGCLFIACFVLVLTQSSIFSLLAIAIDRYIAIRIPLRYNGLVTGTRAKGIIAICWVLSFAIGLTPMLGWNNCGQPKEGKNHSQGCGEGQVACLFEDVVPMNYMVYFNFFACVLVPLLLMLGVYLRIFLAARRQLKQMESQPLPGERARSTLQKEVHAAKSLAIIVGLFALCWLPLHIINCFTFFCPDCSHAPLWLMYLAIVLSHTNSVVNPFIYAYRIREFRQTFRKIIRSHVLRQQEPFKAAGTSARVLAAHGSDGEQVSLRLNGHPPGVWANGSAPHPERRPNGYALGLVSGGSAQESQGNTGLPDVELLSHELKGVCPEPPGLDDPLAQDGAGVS

adenosine A1 receptor = adenosine A1 receptor (Homo sapiens (Human), UniProt P30542); test: Adenosine receptor activity assay (Table 1), A1 cAMP; assay type: cell-based
Sequence of adenosine A1 receptor (P30542 whole entry): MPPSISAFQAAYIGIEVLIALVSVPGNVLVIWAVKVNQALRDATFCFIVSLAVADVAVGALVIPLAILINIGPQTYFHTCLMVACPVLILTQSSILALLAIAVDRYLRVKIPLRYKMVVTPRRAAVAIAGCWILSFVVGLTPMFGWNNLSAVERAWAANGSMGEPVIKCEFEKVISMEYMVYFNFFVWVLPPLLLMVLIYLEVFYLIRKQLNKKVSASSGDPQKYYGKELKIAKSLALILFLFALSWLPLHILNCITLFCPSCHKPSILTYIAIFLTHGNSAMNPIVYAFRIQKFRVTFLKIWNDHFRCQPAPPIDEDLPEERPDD

adenosine A3 receptor = adenosine A3 receptor (Homo sapiens (Human), UniProt P0DMS8); test: Adenosine receptor activity assay (Table 1), A3 cAMP; assay type: cell-based
Sequence of adenosine A3 receptor (P0DMS8 whole entry): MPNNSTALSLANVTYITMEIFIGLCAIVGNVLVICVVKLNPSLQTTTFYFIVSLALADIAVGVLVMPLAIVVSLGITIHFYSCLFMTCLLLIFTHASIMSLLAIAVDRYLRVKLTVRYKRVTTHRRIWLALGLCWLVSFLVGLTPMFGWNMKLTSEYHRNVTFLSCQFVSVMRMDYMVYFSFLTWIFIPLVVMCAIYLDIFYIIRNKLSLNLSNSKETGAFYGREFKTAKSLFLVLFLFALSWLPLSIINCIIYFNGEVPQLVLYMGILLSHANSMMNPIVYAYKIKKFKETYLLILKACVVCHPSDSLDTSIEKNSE

Sequence of adenosine A2B receptor (P29275 whole entry): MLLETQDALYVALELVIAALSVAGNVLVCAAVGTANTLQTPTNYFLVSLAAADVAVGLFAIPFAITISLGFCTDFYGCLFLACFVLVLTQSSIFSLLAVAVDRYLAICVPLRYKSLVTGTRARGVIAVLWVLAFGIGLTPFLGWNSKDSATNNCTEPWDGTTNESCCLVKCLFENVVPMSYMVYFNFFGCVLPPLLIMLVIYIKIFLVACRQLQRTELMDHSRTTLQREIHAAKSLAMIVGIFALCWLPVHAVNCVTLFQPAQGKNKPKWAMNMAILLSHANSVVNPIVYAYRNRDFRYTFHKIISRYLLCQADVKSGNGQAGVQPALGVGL

Compound	Ratio (adenosine A2B receptor)	IC50 (adenosine A2B receptor)	IC50 (adenosine A2A receptor)	IC50 (adenosine A1 receptor)	IC50 (adenosine A3 receptor)
C[C@H](Nc1nc(C(=O)N[C@H]2CC[C@@H](O)C2)c2sccc2n1)c1cncc(F)c1 [Example Z329, 2-(((S)-1-(5-Fluoropyridin-3-yl)ethyl)amino)-N-((1S,3R)-3-hydroxycyclopentyl)thieno[3,2-d]pyrimidine-4-carboxamide]	26.05	< 10 nM	10 to 50 nM	50 to 100 nM	50 to 100 nM
CC(=O)N[C@H]1CCN(C(=O)c2nc(N[C@@H](C)c3cncc(F)c3)nc3ccsc23)C1 [Example Z331, N—((S)-1-(2-(((S)-1-(5-Fluoropyridin-3-yl)ethyl)amino)thieno[3,2-d]pyrimidine-4-carbonyl)pyrrolidin-3-yl)acetamide]	61.94	< 10 nM	100 to 500 nM	> 500 nM	> 500 nM
Cc1cc2nc(N[C@@H](C)c3cccnc3)nc(C(=O)NC[C@@H](C)O)c2s1 [Example Z334, N—((R)-2-Hydroxypropyl)-6-methyl-2-(((S′)-1-(pyridin-3-yl)ethyl)amino)thieno[3,2-d]pyrimidine-4-carboxamide]	171.86	< 10 nM	100 to 500 nM	> 500 nM	50 to 100 nM
Cc1cc2nc(N[C@@H](C)c3cccnc3)nc(C(=O)N3CC[C@H](CO)C3)c2s1 [Example Z336, ((S)-3-(Hydroxymethyl)pyrrolidin-1-yl)(6-methyl-2-(((S)-1-(pyridin-3-yl)ethyl)amino)thieno[3,2-d]pyrimidin-4-yl)methanone]	136.91	< 10 nM	> 500 nM	> 500 nM	> 500 nM
C[C@H](Nc1nc(C(=O)NCC2CCOCC2)c2sccc2n1)c1cncc(F)c1 [Example Z339, (S)-2-((1-(5-Fluoropyridin-3-yl)ethyl)amino)-N-((tetrahydro-2H-pyran-4-yl)methyl)thieno[3,2-d]pyrimidine-4-carboxamide]	10.57	< 10 nM	50 to 100 nM	> 500 nM	> 500 nM
COC[C@@H](Nc1nc(C(=O)N2CCC2)c2sccc2n1)c1cccnc1 [Example Z341, (S)-Azetidin-1-yl(2-((2-methoxy-1-(pyridin-3-yl)ethyl)amino)thieno[3,2-d]pyrimidin-4-yl)methanone]	30.12	< 10 nM	100 to 500 nM	> 500 nM	> 500 nM
C[C@H](Nc1nc(C(=O)N2CC[C@H](O)C2)c2sc(C(F)(F)F)cc2n1)c1cncc(F)c1 [Example Z346, (2-(((S)-1-(5-Fluoropyridin-3-yl)ethyl)amino)-6-(trifluoromethyl)thieno[3,2-d]pyrimidin-4-yl)((S)-3-hydroxypyrrolidin-1-yl)methanone]	448.66	< 10 nM	> 500 nM	> 500 nM	> 500 nM
C[C@H](O)CNC(=O)c1nc(N[C@@H](C)c2cccnc2)nc2cc(C(F)(F)F)sc12 [Example Z347, N—((S)-2-Hydroxypropyl)-2-(((S)-1-(pyridin-3-yl)ethyl)amino)-6-(trifluoromethyl)thieno[3,2-d]pyrimidine-4-carboxamide]	98.22	10 to 50 nM	> 500 nM	> 500 nM	50 to 100 nM
C[C@H](Nc1nc(C(=O)NC[C@@H](C)O)c2sc(C(F)(F)F)cc2n1)c1cccnc1 [Example Z348, N—((R)-2-Hydroxypropyl)-2-(((S)-1-(pyridin-3-yl)ethyl)amino)-6-(trifluoromethyl)thieno[3,2-d]pyrimidine-4-carboxamide]	92.29	10 to 50 nM	> 500 nM	> 500 nM	50 to 100 nM
Cc1cc2nc(N[C@@H](C)c3ccccn3)nc(C(=O)NC3CCC3)c2s1 [Example Z352, (S)—N-Cyclobutyl-6-methyl-2-((1-(pyridin-2-yl)ethyl)amino)thieno[3,2-d]pyrimidine-4-carboxamide]	9.52	< 10 nM	10 to 50 nM	50 to 100 nM	50 to 100 nM
Cc1cc2nc(N[C@@H](C)c3ccccn3)nc(C(=O)NCCO)c2s1 [Example Z353, (S)—N-(2-Hydroxyethyl)-6-methyl-2-((1-(pyridin-2-yl)ethyl)amino)thieno[3,2-d]pyrimidine-4-carboxamide]	53.12	< 10 nM	100 to 500 nM	50 to 100 nM	50 to 100 nM
Cc1cc2nc(N[C@@H](C)c3cccnc3)nc(C(=O)NCCO)c2s1 [Example Z368, (S)—N-(2-Hydroxyethyl)-6-methyl-2-((1-(pyridin-3-yl)ethyl)amino)thieno[3,2-d]pyrimidine-4-carboxamide]	74.02	< 10 nM	100 to 500 nM	50 to 100 nM	50 to 100 nM
Cc1cc2nc(N[C@@H](C)c3cncc(F)c3)nc(C(=O)NCCc3ccc(O)cc3)c2s1 [Example Z373, (S)-2-((1-(5-Fluoropyridin-3-yl)ethyl)amino)-N-(4-hydroxyphenethyl)-6-methylthieno[3,2-d]pyrimidine-4-carboxamide]	75.08	< 10 nM	100 to 500 nM	50 to 100 nM	10 to 50 nM
COc1cccc(CNC(=O)c2nc(N[C@@H](C)c3cncc(F)c3)nc3cc(C)sc23)n1 [Example Z374, (S)-2-((1-(5-Fluoropyridin-3-yl)ethyl)amino)-N-((6-methoxypyridin-2-yl)methyl)-6-methylthieno[3,2-d]pyrimidine-4-carboxamide]	19.21	< 10 nM	100 to 500 nM	50 to 100 nM	10 to 50 nM
Cc1cc2nc(N[C@@H](C)c3cncc(F)c3)nc(C(=O)NCC3CCOCC3)c2s1 [Example Z376, (S)-2-((1-(5-Fluoropyridin-3-yl)ethyl)amino)-6-methyl-N-((tetrahydro-2H-pyran-4-yl)methyl)thieno[3,2-d]pyrimidine-4-carboxamide]	32.01	< 10 nM	100 to 500 nM	50 to 100 nM	50 to 100 nM
C[C@H](Nc1nc(C(=O)NCCc2ccncc2)c2sccc2n1)c1cncc(F)c1 [Example Z382, (S)-2-((1-(5-Fluoropyridin-3-yl)ethyl)amino)-N-(2-(pyridin-4-yl)ethyl)thieno[3,2-d]pyrimidine-4-carboxamide]	18.44	10 to 50 nM	> 500 nM	> 500 nM	> 500 nM
CC(=O)N[C@H]1CCN(C(=O)c2nc(N[C@@H](C)c3cncc(F)c3)nc3cc(C)sc23)C1 [Example Z383, N—((S)-1-(2-(((S)-1-(5-Fluoropyridin-3-yl)ethyl)amino)-6-methylthieno[3,2-d]pyrimidine-4-carbonyl)pyrrolidin-3-yl)acetamide]	55.83	10 to 50 nM	> 500 nM	> 500 nM	10 to 50 nM
C[C@H](Nc1nc(C(=O)NCCc2ccc(CO)cc2)c2sccc2n1)c1cncc(F)c1 [Example Z384, (S)-2-((1-(5-Fluoropyridin-3-yl)ethyl)amino)-N-(4-(hydroxymethyl)phenethyl)thieno[3,2-d]pyrimidine-4-carboxamide]	13.78	10 to 50 nM	100 to 500 nM	50 to 100 nM	> 500 nM
C[C@H](Nc1nc(C(=O)NCCC2CCNC2)c2sccc2n1)c1cncc(F)c1 (stereo partly drawn) [Example Z386, 2-(((S)-1-(5-Fluoropyridin-3-yl)ethyl)amino)-N-(2-(pyrrolidin-3-yl)ethyl)thieno[3,2-d]pyrimidine-4-carboxamide]	100.94	10 to 50 nM	> 500 nM	> 500 nM	> 500 nM
Cc1cc2nc(N[C@@H](C)c3cncc(F)c3)nc(C(=O)NC[C@@H]3CCOC3)c2s1 [Example Z389, 2-(((S)-1-(5-Fluoropyridin-3-yl)ethyl)amino)-6-methyl-N—(((S)-tetrahydrofuran-3-yl)methyl)thieno[3,2-d]pyrimidine-4-carboxamide]	50.96	< 10 nM	> 500 nM	50 to 100 nM	50 to 100 nM
Cc1cc2nc(N[C@@H](C)c3cncc(F)c3)nc(C(=O)NC[C@H]3CCOC3)c2s1 [Example Z390, 2-(((S)-1-(5-fluoropyridin-3-yl)ethyl)amino)-6-methyl-N—(((R)-tetrahydrofuran-3-yl)methyl)thieno[3,2-d]pyrimidine-4-carboxamide]	68.99	< 10 nM	100 to 500 nM	50 to 100 nM	50 to 100 nM
C[C@H](O)CNC(=O)c1nc(N[C@@H](C)c2cncc(F)c2)nc2cc(C(F)(F)F)sc12 [Example Z392, 2-(((S)-1-(5-fluoropyridin-3-yl)ethyl)amino)-N—((S)-2-hydroxypropyl)-6-(trifluoromethyl)thieno[3,2-d]pyrimidine-4-carboxamide]	248.84	< 10 nM	> 500 nM	50 to 100 nM	50 to 100 nM
C[C@H](Nc1nc(C(=O)NC[C@@H](C)O)c2sc(C(F)(F)F)cc2n1)c1cncc(F)c1 [Example Z393, 2-(((S)-1-(5-Fluoropyridin-3-yl)ethyl)amino)-N—((R)-2-hydroxypropyl)-6-(trifluoromethyl)thieno[3,2-d]pyrimidine-4-carboxamide]	399.70	< 10 nM	> 500 nM	50 to 100 nM	50 to 100 nM
((R)-3-Methoxypyrrolidin-1-yl)(2-(((S)-1-(pyridin-2-yl)ethyl)amino)thieno[3,2-d]pyrimidin-4-yl)methanone [Example Z247]	2.54	10 to 50 nM	50 to 100 nM	> 500 nM	> 500 nM
